Biological target: Heat shock 70 kDa protein 1A (Homo sapiens, UniProt V9GZ37)
Assay: inhibition of Hsp70 binding activity – biochemical, fluorescence polarization, SAR follow-up (AID 1072)

Sequence of Heat shock 70 kDa protein 1A (V9GZ37 whole entry): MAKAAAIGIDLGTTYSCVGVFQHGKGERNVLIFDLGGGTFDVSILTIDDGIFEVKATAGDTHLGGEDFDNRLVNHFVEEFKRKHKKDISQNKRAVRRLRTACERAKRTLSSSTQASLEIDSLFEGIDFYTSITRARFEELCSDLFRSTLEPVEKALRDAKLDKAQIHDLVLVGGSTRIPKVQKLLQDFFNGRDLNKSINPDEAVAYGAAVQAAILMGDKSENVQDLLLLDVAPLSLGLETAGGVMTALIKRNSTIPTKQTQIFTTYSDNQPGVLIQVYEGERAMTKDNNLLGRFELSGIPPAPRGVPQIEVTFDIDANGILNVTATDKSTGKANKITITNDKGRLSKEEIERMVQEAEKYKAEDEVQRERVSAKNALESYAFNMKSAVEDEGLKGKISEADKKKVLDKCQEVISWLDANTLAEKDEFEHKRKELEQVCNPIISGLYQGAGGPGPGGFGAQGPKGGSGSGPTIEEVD

IC50: 34.2 µM
SMILES: O=C1C=C2CC3(O)CCc4c(ccc(O)c4O)C3=C2CC1=O (stereo unspecified) [3,4,6a,10-tetrakis(oxidanyl)-6,7-dihydro-5H-benzo[g]fluoren-9-one]

From BindingDB's records for doi:10.7270/Q2S75DRW (Burnham Center For Chemical Genomics, 2008)
